TGI and GI50 data for 14 compounds are collected here from PubChem BioAssay (NCI).

Several values for one entry are separate records, joined by “and”; a condition that tells them apart may be missing. Equal values may be shown once.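 These data come from cells grown in 96-well plates and exposed to compound for 48 hours at five concentrations. At the GI50, growth is halved. TGI marks complete inhibition of growth.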

Test systems include A549 NSCLC; COLO 205 colon; HOP-62 NSCLC; LOX IMVI melanoma; M14 melanoma; MOLT-4 leukemia; NCI-H460 lung; SR leukemia; TK-10 renal; EKVX NSCLC.
Assay in all cases: NCI-60 cell line screen, 48 h

On to `O=c1cc(-c2ccccc2)[nH]c2cc(Cl)cc(Cl)c12`, for which the TGI in the test with A549 NSCLC, in the test with COLO 205 colon, with HOP-62 NSCLC, with LOX IMVI melanoma, with M14 melanoma and in the test with MOLT-4 leukemia was more than 100 µM throughout. Further, the TGI with NCI-H460 lung, with SR leukemia and with TK-10 renal was more than 100 µM throughout.
Consider `Cc1cc2nc3c(=O)n(C)c(=O)nc-3n(-c3ccc(Cl)cc3)c2cc1C`, for which the TGI in the test with A549 NSCLC is 16.4 µM; in the test with COLO 205 colon, 9.76 µM; in the test with EKVX NSCLC, 43.9 µM; in the test with HOP-62 NSCLC, 65.1 µM; with M14 melanoma, 13.9 µM; with MOLT-4 leukemia it was 32.8 µM. The TGI in the test with NCI-H460 lung was determined as 10.6 µM; in the test with TK-10 renal, 92 µM.
Regarding `N#CCCc1nc2ccc(Br)cc2c(=O)n1CCO`, the TGI with A549 NSCLC, in the test with COLO 205 colon, in the test with EKVX NSCLC, in the test with HOP-62 NSCLC, in the test on LOX IMVI melanoma and in the test on M14 melanoma was more than 100 µM each time. The TGI with MOLT-4 leukemia and with TK-10 renal was more than 100 µM throughout.
With `COP1(=O)CC2C(Cl)(Cl)C2(C)C1` (stereo unspecified), the TGI in the test on A549 NSCLC, with COLO 205 colon, in the test on HOP-62 NSCLC, in the test with LOX IMVI melanoma, in the test with M14 melanoma and in the test on MOLT-4 leukemia was more than 100 µM throughout. Further, the TGI with NCI-H460 lung and in the test on TK-10 renal was more than 100 µM in each case.
As to `Cc1ccc(C(=O)c2oc3ccc4c(C)cc(=O)oc4c3c2C)cc1`, the GI50 with A549 NSCLC is 4.97 µM; in the test on COLO 205 colon, 4.66 µM; in the test with HOP-62 NSCLC, 12.2 µM; in the test with LOX IMVI melanoma, 2.45 µM; with MOLT-4 leukemia, 63.6 µM; in the test with NCI-H460 lung, 0.896 µM. Further, the values for the GI50 in the test with SR leukemia and in the test with TK-10 renal were 25.1 µM and 45.1 µM, respectively. Besides, the TGI was more than 100 µM in the test on A549 NSCLC; more than 100 µM in the test with COLO 205 colon; more than 100 µM with HOP-62 NSCLC; 19.1 µM in the test with LOX IMVI melanoma; more than 100 µM in the test on MOLT-4 leukemia; 18.2 µM in the test with NCI-H460 lung. The TGI in the test with SR leukemia and in the test with TK-10 renal was more than 100 µM each time.
On to `CCOC(=O)CCC(=O)C1c2cccc(O)c2C(=O)c2c(O)cccc21`, for which the TGI was found to be 2.18 µM in the test on A549 NSCLC; 3.95 µM in the test with COLO 205 colon; 3.8 µM in the test with HOP-62 NSCLC; 1.89 µM in the test with LOX IMVI melanoma; 1.9 µM in the test with M14 melanoma; 13.7 µM in the test on MOLT-4 leukemia. The TGI worked out at 1.4 µM in the test with NCI-H460 lung, 7.29 µM in the test on SR leukemia and 4.76 µM in the test with TK-10 renal.
For `O=C(Nc1ccc(Cl)cc1)Nc1ccc(Cl)c(Cl)c1`, the GI50 in the test on A549 NSCLC was 4.58 µM; in the test on COLO 205 colon it was 1.85 µM; in the test with EKVX NSCLC, 3.41 µM; in the test on HOP-62 NSCLC, 4.7 µM; with LOX IMVI melanoma, 3.39 µM; in the test on M14 melanoma, 4.71 µM. For the same compound, the GI50 is 2.65 µM with MOLT-4 leukemia, 2.77 µM with NCI-H460 lung and 7.64 µM in the test with TK-10 renal. Moreover, the TGI with A549 NSCLC was more than 100 µM; in the test on COLO 205 colon it was 3.42 µM; in the test with EKVX NSCLC it was more than 100 µM; in the test with HOP-62 NSCLC it was more than 100 µM; in the test on LOX IMVI melanoma, more than 100 µM; with M14 melanoma, more than 100 µM. The TGI with MOLT-4 leukemia is more than 100 µM; with NCI-H460 lung it was 12.6 µM; in the test with TK-10 renal, more than 100 µM.
For the compound `COc1cc(C2c3cc4c(cc3[C@@H](Nc3ccc(C(=O)O)cc3)C3COC(=O)[C@H]23)OCO4)cc(OC)c1O` (stereo partly specified), the TGI is more than 100 µM with A549 NSCLC; more than 100 µM with COLO 205 colon; more than 100 µM with EKVX NSCLC; 33.9 µM and > 17.5 µM in the test on HOP-62 NSCLC; 18.7 µM and 5.1 µM in the test with LOX IMVI melanoma; 59.9 µM and > 17.5 µM in the test on M14 melanoma. In addition, the TGI was 5.47 µM and 2.66 µM in the test on MOLT-4 leukemia; 17.6 µM and > 17.5 µM with NCI-H460 lung; more than 100 µM in the test on TK-10 renal. Besides, the GI50 in the test on COLO 205 colon is 26.8 µM and 12.9 µM.
For the compound `CCN(CC)CCCCC1CCN(CC(=O)N2CC(C)C(=O)Nc3ccccc32)CC1` (stereo unspecified), the TGI in the test with A549 NSCLC, in the test with COLO 205 colon, with HOP-62 NSCLC, in the test on LOX IMVI melanoma, in the test on M14 melanoma and with MOLT-4 leukemia was more than 100 µM throughout. In addition, the TGI in the test with NCI-H460 lung and in the test on SR leukemia was more than 100 µM each time.
With `COC(=O)c1c(-c2ccccc2)cc2c3cc(-c4ccccc4)c(C(=O)OC)n3c3ccccc3n12`, the TGI in the test on A549 NSCLC, with COLO 205 colon, with EKVX NSCLC, in the test on HOP-62 NSCLC, in the test on LOX IMVI melanoma and in the test with M14 melanoma was more than 100 µM in each case. Besides, the TGI with MOLT-4 leukemia, in the test on NCI-H460 lung and in the test with TK-10 renal was more than 100 µM throughout.
Consider `N#CC(C#N)=C(N)/C(C#N)=C\c1ccnc2ccccc12`, for which the TGI is more than 100 µM in the test on A549 NSCLC; more than 100 µM in the test on COLO 205 colon; 56.5 µM in the test with HOP-62 NSCLC; more than 100 µM with M14 melanoma; 47.9 µM in the test on MOLT-4 leukemia; more than 100 µM with NCI-H460 lung. In addition, the values for the TGI with SR leukemia and in the test on TK-10 renal were 58 µM and more than 100 µM, respectively.
Take `Cc1nc2ccc(C(F)(F)F)cc2nc1Nc1ccc(Cl)c(Cl)c1`: the TGI was found to be 21.6 µM in the test with A549 NSCLC; 11.9 µM in the test with COLO 205 colon; 30.5 µM in the test on HOP-62 NSCLC; 13.5 µM in the test with LOX IMVI melanoma; 48.2 µM with MOLT-4 leukemia; 10.5 µM with NCI-H460 lung. For the same compound, the TGI turned out to be 51.9 µM with SR leukemia and 31.7 µM with TK-10 renal.
Turning to `O=c1cc(-c2ccccc2)[nH]c2cccc(S)c12`, the TGI in the test with A549 NSCLC is more than 100 µM; in the test with COLO 205 colon it was 19.2 µM; in the test on EKVX NSCLC, more than 100 µM; in the test on HOP-62 NSCLC it was more than 100 µM; in the test on M14 melanoma, more than 100 µM; in the test with MOLT-4 leukemia, more than 100 µM. Also, the TGI with NCI-H460 lung and in the test on SR leukemia was more than 100 µM in each case.
Regarding `CCOc1ccccc1NC(=O)/C=C1\NC(=O)CS1`, the TGI in the test with A549 NSCLC, with COLO 205 colon, with EKVX NSCLC, with HOP-62 NSCLC, in the test on LOX IMVI melanoma and in the test on M14 melanoma was more than 100 µM in each case. The TGI in the test on MOLT-4 leukemia, in the test with NCI-H460 lung and with TK-10 renal was more than 100 µM throughout.
